Data on nine molecules can be found in publication PMC2724708, “Adenosine Kinase of T. b. rhodesiense Identified as the Putative Target of 4-[5-(4-phenoxyphenyl)-2H-pyrazol-3-yl]morpholine Using Chemical Proteomics” (PLoS Neglected Tropical Diseases, 2009).

One may read the Ki as the equilibrium dissociation constant of an inhibitor or competing ligand from its target. Lower therefore signals higher affinity. For orientation: ΔTm means the shift of the melting midpoint relative to a reference. A word on the IC50: it is the midpoint of a concentration-inhibition curve. For orientation: EC50 means the concentration that produces a half-maximal response. Broadly, the Km is the substrate concentration at which the rate is half of its maximum.

≈ marks a conversion by molar mass, not a printed value.

For data set [1], the target named is T1, glycosomal T. b. rhodesiense glyceraldehyde-3-phosphate dehydrogenase (TbrGAPDH) (Trypanosoma brucei brucei, UniProt P22512).
T1 construct: made in house; host or cells: E. coli BL21(DE3), pET28a
Kind of data set: Thermal stability assay (CD spectroscopy) regarding TbrGAPDH. Particulars: for ∆Tm of TbrGAPDH: vs TbrGAPDH alone. The class given is binding. The protocol:
Thermal unfolding of TbrGAPDH and TbrAK was studied by circular dichroism (CD) spectroscopy at 220 nm within the temperature range of 20–90°C using a heating rate of 40°C/h. […]
All measurements were done in a 0.5 mm cell and contained 0.1 %
(§1) DMSO and 2.5 mM EDTA to prevent enzyme activity. Thermal stability was analyzed in presence of 500 µM substrate to record the maximum stability limit, whereas compounds 1 to 5 were used at a concentration of 50 µM, being the highest concentration achievable for compound 2, to allow comparison of all compounds at the same concentration. For evaluation of the CD spectra, the buffer spectrum was subtracted from the protein CD spectrum. All thermal unfolding curves were fitted to a two-state model that had been published recently. The mean of three independent experiments are reported. […]

Data set [2] addresses T2, adenosine kinase of T. b. rhodesiense (TbrAK) (Trypanosoma brucei rhodesiense, UniProt Q584S0).
T2 sequence (Q584S0 1-345): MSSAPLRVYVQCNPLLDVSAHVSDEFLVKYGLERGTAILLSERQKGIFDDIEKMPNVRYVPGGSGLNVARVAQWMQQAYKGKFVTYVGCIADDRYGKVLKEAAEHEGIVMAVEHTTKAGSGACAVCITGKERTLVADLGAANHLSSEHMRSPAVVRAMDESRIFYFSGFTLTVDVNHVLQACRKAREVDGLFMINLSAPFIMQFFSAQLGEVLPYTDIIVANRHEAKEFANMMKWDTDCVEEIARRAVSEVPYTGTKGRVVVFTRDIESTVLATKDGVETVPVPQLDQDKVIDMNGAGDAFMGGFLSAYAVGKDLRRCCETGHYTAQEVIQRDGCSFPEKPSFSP
In words: Thermal stability assay (CD spectroscopy) regarding TbrAK. The data set is classed as binding. Conditions: for Tm of TbrAK: 13 µM TbrAK. The method, then:
Thermal unfolding of TbrGAPDH and TbrAK was studied by circular dichroism (CD) spectroscopy at 220 nm within the temperature range of 20–90°C using a heating rate of 40°C/h.
as §1, with “TbrAK in buffer E1 (20 mM Hepes, 150 mM NaCl, pH 7.0) was used at 0.5 mg/ml (final concentration 13 µM). All measurements were done in a 0.5 mm cell and contained 0.1 % DMSO” for “DMSO”

Data set [3] deals with T2, adenosine kinase of T. b. rhodesiense (TbrAK). In words: Radiometric assay for kinetic study of TbrAK.
The subject of another data set is T. b. rhodesiense. Further details: method as in PMID 17949068. Conditions: in vitro, blood stage parasite; read-out: IC50 against blood stage T.b. rhodesiense; cited from earlier work.
A short description of data set [4]: Solubility limit in the assay mixture. The class given is physicochemical. Particulars: HPLC activity assay mixture (buffer E1 with 1% DMSO), 37 °C, pH 7, aqueous buffer, kinetic from dmso stock, read-out: solubility limiting concentration.
Data set [5] has as its target T2, adenosine kinase of T. b. rhodesiense (TbrAK). Kind of data set: HPLC activity assay for TbrAK. The class given is biochemical. Particulars: for activity at 50 µM: 37°C, ADP/ATP ratio, read-out: TbrAK activity in presence of compound (% of activity without compound); for concentration dependence of the activation effect: range 1–750 µM, up to solubility limit. The protocol: TbrAK catalyzes the ATP-dependent phosphorylation of the 5′-hydroxyl moiety of adenosine to form AMP and ADP. The activity assay was based on HPLC separation of substrate and products (adenosine, AMP, ADP, and ATP). The mobile phase consisted of 35 mM KH2PO4, 6 mM tetrabutylammonium hydrogensulfate, (pH 7.0, adjusted with KOH), 125 mM EDTA, and 1% (v/v) acetonitrile. The separation was performed isocratically at a flow-rate of 1.5 ml/min and monitored at 254 nm. The standard reaction in 75 µl total volume containing 0.5 mM ATP, 0.5 mM adenosine, 0.5 mM MgCl2, 1% DMSO in buffer E1 (20 mM Hepes, 150 mM NaCl, pH 7.0) was started with the addition of 2 µg TbrAK (final concentration 0.7 µM) and incubated at 37°C for 10 min while shaking vigorously (600 rpm). […] All reactions were stopped by adding 75 µl mobile phase. 50 µl of the sample volume were injected for analysis and the resulting ADP/ATP ratios were calculated and used as a measure of activity. For comparative reasons the activity recorded in absence of compound was set to 100%. The mean of three independent measurements are reported.

Details of data set [6]: method as in PMID 17949068. Conditions: cited from earlier work.
In data set [7] the test system is bloodstream-form T. b. brucei TbAK RNAi cells. Kind of data set: Drug sensitivity test (Alamar blue) on TbAK RNAi knock-down mutant. The class given is cell-based. The method, then:
The construction of the T. b. brucei adenosine kinase gene knock-down mutant has been described recently. Expression of a stem-loop construct targeting TbAK was induced by addition of 10 µg/ml tetracycline to the medium. Down-regulation of TbAK expression was verified by Northern blotting. Parasites were cultivated and drug sensitivity was tested using the Alamar blue test. IC50 values were calculated by nonlinear fitting to the sigmoidal dose-response curve using Origin® software. The assays were performed in triplicates for at least four times.

Substrate in data set [8]: Nc1ncnc2c1ncn2[C@@H]1O[C@H](CO)[C@@H](O)[C@H]1O
In words: purified protein, by the assay type. Conditions: other: in absence of compound 1, 167 µM ATP; pH 7.0; 37.0 °C.

[9] abbreviates: 50 µM compound, 0.7 µM TbrAK, 10 min.

T1 sequence (P22512 whole entry): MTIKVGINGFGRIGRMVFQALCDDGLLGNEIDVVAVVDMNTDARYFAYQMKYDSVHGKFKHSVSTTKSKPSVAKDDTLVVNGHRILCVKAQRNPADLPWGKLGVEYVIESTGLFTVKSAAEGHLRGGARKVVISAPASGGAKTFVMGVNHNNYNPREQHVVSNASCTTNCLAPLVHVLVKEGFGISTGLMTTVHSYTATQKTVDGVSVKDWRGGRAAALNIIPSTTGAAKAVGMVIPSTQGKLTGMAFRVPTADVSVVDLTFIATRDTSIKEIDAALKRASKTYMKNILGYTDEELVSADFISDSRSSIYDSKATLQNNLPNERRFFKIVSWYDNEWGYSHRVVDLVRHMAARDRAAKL

Regarding `O=CC(O)COP(=O)(O)O` (racemic) [DL-GAP, DL-glyceraldehyde-3-phosphate, reference compound], in data set [1] (substrate at 500 µM), the “Tm of TbrGAPDH” value came out at 50.0 ± 0.7 °C and the “∆Tm of TbrGAPDH” value worked out at 2.4 °C.

For the molecule `Nc1ncnc2c1ncn2[C@@H]1O[C@H](COP(=O)(O)OP(=O)(O)OP(=O)(O)O)[C@@H](O)[C@H]1O` [ATP, reference compound], in data set [2] (substrate at 500 µM), the “Tm of TbrAK” value was determined as 42.8±0.1 °C. In addition, in [2] (substrate at 500 µM, vs apo TbrAK), the “ΔTm of TbrAK” value is −0.3 °C.

Take `NC(=O)c1ccc[n+]([C@@H]2O[C@H](COP(=O)([O-])OP(=O)(O)OC[C@H]3O[C@@H](n4cnc5c(N)ncnc54)[C@H](O)[C@@H]3O)[C@@H](O)[C@H]2O)c1` [NAD+, reference compound]: in [1] (substrate at 500 µM), the “Tm of TbrGAPDH” value was 55.6 ± 0.2 °C and the “∆Tm of TbrGAPDH” value stood at 8.0 °C.

Consider `Nc1ncnc2c1ncn2[C@@H]1O[C@H](CO)[C@@H](O)[C@H]1O` [adenosine], for which the Ki in data set [3] amounted to 6.1 ± 1.4 µM. For the same molecule, the ΔTm at 500 µM in [2] (read-out: ΔTm of TbrAK) was found to be 7.6 °C. The “Tm of TbrAK” value in data set [2] (substrate at 500 µM) was 50.7±0.2 °C.

For `Nc1ccc(Oc2ccc(-c3cc(N4CCOCC4)[nH]n3)cc2)cc1` [compound 2, 4-[4-(5-morpholine-4-yl-1H-pyrazol-3-yl)-phenoxy]phenylamine], in data set [1] (compound at 50 µM), the “Tm of TbrGAPDH” value worked out at 47.0 ± 0.4 °C. Besides, the IC50 in the data set with T. b. rhodesiense was 17.7 µM. In addition, the “Tm of TbrAK” value in [2] (compound at 50 µM) is 45.9±0.4 °C. Besides, the ΔTm at 50 µM in [2] (read-out: ΔTm of TbrAK) was 2.8 °C. For the same molecule, the solubility in [4] was at most 50 µM. Further, in [5] (setting [9]), the activity at 50 µM came to 174 ± 5%. Further, in [5] (10 min, pH 7, 50 µM compound, read-out: fold increase of TbrAK activity), the fold induction at 50 µM was determined as 1.7. Further, in data set [5], the “concentration dependence of the activation effect” value (“concentration dependence” below) is given as “concentration dependent”.

As for `Nc1ccc(-n2nc(-c3ccc(Oc4ccccc4)cc3)cc2N2CCOCC2)cc1` [compound 3, 4-[5-morpholine-4-yl-3-(4-phenoxyphenyl)-pyrazol-1-yl]phenylamine], in data set [1] (compound at 50 µM), the “Tm of TbrGAPDH” value was 45.5 ± 0.6 °C. Besides, the IC50 in the data set on T. b. rhodesiense was 10.3 µM. Besides, the “Tm of TbrAK” value in data set [2] (compound at 50 µM) is 42.8±0.2 °C. Further, in data set [2] (read-out: ΔTm of TbrAK), the ΔTm at 50 µM was -0.3 °C. Moreover, in data set [5] (setting [9]), the activity at 50 µM stood at 110 ± 1%. In addition, the “concentration dependence” value in data set [5] is listed as “did not activate TbrAK”.

Take `c1ccc(Oc2ccc(-c3cc(N4CCNCC4)[nH]n3)cc2)cc1` [compound 4]: the “Tm of TbrGAPDH” value in data set [1] (compound at 50 µM) was determined as 47.0 ± 0.1 °C. Further, in the data set on T. b. rhodesiense, the IC50 is 1.1 µM. In addition, in [2] (compound at 50 µM), the “Tm of TbrAK” value is 43.2±0.1 °C. Besides, the thermal shift (ΔTm) at 50 µM in [2] (read-out: ΔTm of TbrAK) was found to be 0.1 °C. Further, the “cytotoxicity / general toxicity” value in data set [6] was “increased general toxicity”. Besides, the solubility in [4] was 750 µM (≈ 240 µg/mL). In addition, the activity at 50 µM in data set [5] (setting [9]) amounted to 109 ± 1%. Further, the EC50 in data set [5] (0.5 mM ATP, 0.5 mM adenosine, 0.7 µM TbrAK, read-out: EC50 of TbrAK activation (HPLC assay)) is above 750 µM. Moreover, the “fold increase of EC50 relative to compound 1” value in data set [5] (HPLC assay) is reported as “at least 20 fold”. For the same molecule, the “concentration dependence” value in data set [5] was “concentration dependent”.

For `c1ccc(Oc2ccc(-c3cc[nH]n3)cc2)cc1` [compound 5, 3-(4-phenoxyphenyl)-1H-pyrazole], the “IC50 difference between induced and non-induced TbAK RNAi cells” value in data set [7] is reported as “did not exhibit any IC50 difference”. In addition, the “Tm of TbrGAPDH” value in [1] (compound at 50 µM) was determined as 46.7 ± 0.2 °C. Also, the IC50 in the data set with T. b. rhodesiense was above 65 µM; in data set [6] (read-out: general toxicity IC50) it was above 136 µM. In data set [2] (compound at 50 µM), the “Tm of TbrAK” value is 43.4±0.1 °C. In addition, in data set [2] (read-out: ΔTm of TbrAK), the ΔTm at 50 µM was 0.3 °C. The activity at 50 µM in [5] (setting [9]) is 102 ± 2%. Moreover, in data set [5], the “concentration dependence” value is “did not activate TbrAK”.

B1: adenosine kinase of T. b. rhodesiense (TbrAK) (Trypanosoma brucei brucei TREU927) (protein)
chain: MSSAPLRVYVQCNPLLDVSAHVSDEFLVKYGLERGTAILLSERQKGIFDDIEKMPNVRYVPGGSGLNVARVAQWMQQAYKGKFVTYVGCIADDRYGKVLKEAAEHEGIVMAVEHTTKAGSGACAVCITGKERTLVADLGAANHLSSEHMRSPAVVRAMDESRIFYFSGFTLTVDVNHVLQACRKAREVDGLFMINLSAPFIMQFFSAQLGEVLPYTDIIVANRHEAKEFANMMKWDTDCVEEIARRAVSEVPYTGTKGRVVVFTRDIESTVLATKDGVETVPVPQLDQDKVIDMNGAGDAFMGGFLSAYAVGKDLRRCCETGHYTAQEVIQRDGCSFPEKPSFSP
With B1, the Km in data set [8] came to 0.99 ± 0.05 µM.
